The values that follow come from patent publication US20250277012A1 (Protagonist Therapeutics, Inc., priority 2021, published 2025).

SMILES strings stand for the structures. Starred links: 1 amine or outer side, 2 acyl side, 3 side chain; linkers in the order of their positions; H or OH if unused. Positions of bridges follow the written chain, without caps; N, C: chain ends. Non-standard residues stand in square brackets, D forms with d. Residues, ends and D or L forms follow the SMILES beside them. Groups on a side chain read outwards from the residue. ξ: configuration not given here. *: point of attachment. X2 = C[N+](C)(CCNC(=O)CCCCCCCCCCCCCCCCC(=O)O)CC(=O)NCC[N+](C)(C)CC(=O)*; X13 = COC(=O)CCCCCCCCCCCCCCCCC(=O)NCC[N+](C)(C)CC(=O)*; X1 = C[N+](C)(CCNC(=O)CCCCCCCCCCCCCCCCC(=O)O)CC(=O)*; X5 = CCCCCCCCCCCCCCCC(=O)NCC[N+](C)(C)CC(=O)*; C18 diacid = O=C(O)CCCCCCCCCCCCCCCCC(=O)*; Dip = N[C@H](C(=O)O)C(c1ccccc1)c1ccccc1; Pro(3S-OH) = O=C(O)[C@H]1NCC[C@@H]1O; ξDip = NC(C(=O)O)C(c1ccccc1)c1ccccc1; Pro(3R-OH) = O=C(O)[C@H]1NCC[C@H]1O; Ethylenediamine = C(CN[*:2])N[*:1]; Palmitoyl = CCCCCCCCCCCCCCCC(=O)*; NMeT = CN[C@H](C(=O)O)[C@@H](C)O; NMeE = CN[C@@H](CCC(=O)O)C(=O)O; β3hF = N[C@H](CC(=O)O)Cc1ccccc1; NMeK = CN[C@@H](CCCCN)C(=O)O; Isovaleryl = CC(C)CC(=O)*; Dap = NC[C@H](N)C(=O)O; AEEA = NCCOCCOCC(=O)O; Ahx = NCCCCCC(=O)O; ξC = NC(CS)C(=O)O

The assay addresses T1, ferroportin (Homo sapiens, UniProt Q9NP59).
T1 sequence (Q9NP59 1-571): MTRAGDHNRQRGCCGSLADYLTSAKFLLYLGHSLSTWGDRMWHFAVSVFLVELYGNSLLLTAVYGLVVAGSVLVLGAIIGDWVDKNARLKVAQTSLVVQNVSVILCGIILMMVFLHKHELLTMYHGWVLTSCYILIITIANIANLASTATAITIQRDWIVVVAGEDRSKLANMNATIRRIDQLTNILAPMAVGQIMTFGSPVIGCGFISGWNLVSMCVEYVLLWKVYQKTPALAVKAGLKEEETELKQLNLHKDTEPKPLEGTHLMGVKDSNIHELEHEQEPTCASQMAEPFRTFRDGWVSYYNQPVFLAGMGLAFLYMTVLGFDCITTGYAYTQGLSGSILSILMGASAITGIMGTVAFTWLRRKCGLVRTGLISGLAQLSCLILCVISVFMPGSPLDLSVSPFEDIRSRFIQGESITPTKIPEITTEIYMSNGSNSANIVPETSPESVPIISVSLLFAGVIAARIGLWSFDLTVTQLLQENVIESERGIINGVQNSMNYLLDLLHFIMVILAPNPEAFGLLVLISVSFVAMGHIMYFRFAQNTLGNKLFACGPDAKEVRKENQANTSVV
The experiment in a line: T47D cell-based ferroportin internalization assay in presence of mouse serum albumin (MSA). Conditions: Table 6E. The arrangement: a human breast carcinoma adherent cell line which endogenously expresses ferroportin; host or cells: T47D. As to the method:
The potency of the peptides in causing ferroportin internalization was evaluated in a T47D cell-based assay. […] In this internalization assay, the potency of the test peptides was evaluated in presence of serum albumin which is the main protein component in the blood. T47D cells were maintained in RPMI media (containing required amount of fetal bovine serum) and regularly sub-cultured. In preparation for the assay, the cells were seeded in 96-well plates at a density of 80-100 k cells per well in 100 ul volume and allowed to rest overnight. […] Sigma, A3139). The test peptide dilution series were allowed to incubate at room temperature for 30 min. Then the media was aspirated from the 96-well cell plate and test peptide dilution series were added. […] The AF647-conjugated detection peptide was previously verified to bind to ferroportin and cause its internalization. The cells were washed again after a 2 hr incubation in preparation for flow cytometry analysis. The Median Fluorescence Intensity (MFI) of the AF647-positive population was measured (after removing dead cells and non-singlets from the analysis). The MFI values were used to generate a dose-response curve and obtain IC50 potencies for the test peptides.

Setting [1] is: T47D internalization assay with MSA.
The mark [2] stands for this setting: T47D internalization assay in presence of mouse serum albumin (MSA).

On to `CCCCCCCCCCCCCCCC(=O)NCC[N+](C)(C)CC(=O)NCCCCCC(=O)NCCCC[C@@H](C(=O)N[C@H](C(=O)N[C@H](CCCCN)C(N)=O)C(c1ccccc1)c1ccccc1)N(C)C(=O)[C@@H]1CSSC[C@H](NC(=O)[C@@H]2CCCN2C(=O)[C@@H](NC(=O)[C@H](Cc2cnc[nH]2)NC(=O)[C@@H](NC(=O)[C@H](CCC(=O)O)N(C)C(=O)CC(C)C)[C@@H](C)O)C(c2ccccc2)c2ccccc2)C(=O)N1` [compound 167] (Isovaleryl-[NMeE]TH[Dip]PCC[NMeK]([Ahx-X5])[Dip][dK]-NH2; disulfide 6-7), for which, under setting [1], the IC50 was in the range of 1 to 10 nM.

`COC(=O)CC[C@H](NC(=O)CC(C)C)C(=O)N[C@H](C(=O)N[C@@H](Cc1c[nH]cn1)C(=O)N[C@H](C(=O)N1CCC[C@H]1C(=O)N[C@H]1CSSC[C@@H](C(=O)N[C@H](CCCCNC(=O)CCCCCNC(=O)C[N+](C)(C)CCNC(=O)CCCCCCCCCCCCCCCCC(=O)O)C(=O)N[C@H](C(=O)N[C@H](CCCCN)C(N)=O)C(c2ccccc2)c2ccccc2)NC1=O)C(c1ccccc1)c1ccccc1)[C@@H](C)O` [compound 208] (Isovaleryl-E(OMe)TH[Dip]PCC[dK]([Ahx-X1])[Dip][dK]-NH2; disulfide 6-7): the IC50 under setting [1] is 10 to 100 nM.

As for `CCCCCCCCCCCCCCCC(=O)NCCCCCC(=O)NCCCC[C@@H](C(=O)N[C@H](C(=O)NCCN)C(c1ccccc1)c1ccccc1)N(C)C(=O)C1CSSC[C@H](NC(=O)[C@@H]2CCCN2C(=O)[C@@H](NC(=O)[C@H](Cc2c[nH]cn2)NC(=O)[C@@H](NC(=O)[C@H](CCC(=O)O)NC(=O)CC(C)C)[C@@H](C)O)C(c2ccccc2)c2ccccc2)C(=O)N1` (some centres unmarked) [compound 164] (Isovaleryl-ETH[Dip]PC[ξC][NMeK]([Ahx-Palmitoyl])[Dip]-Ethylenediamine; disulfide 6-7), the IC50 under setting [1] lay within 1 to 10 nM.

`COC(=O)CC[C@H](NC(=O)CC(C)C)C(=O)N[C@H](C(=O)N[C@@H](Cc1c[nH]cn1)C(=O)N[C@H](C(=O)N1CCC[C@H]1C(=O)N[C@H]1CSSC[C@@H](C(=O)N(C)[C@@H](CCCCNC(=O)COCCOCCNC(=O)COCCOCCNC(=O)C[N+](C)(C)CCNC(=O)CCCCCCCCCCCCCCCCC(=O)O)C(=O)N[C@H](CC(=O)N[C@H](CCCCN)C(N)=O)Cc2ccccc2)NC1=O)C(c1ccccc1)c1ccccc1)[C@@H](C)O` [compound 231] (Isovaleryl-E(OMe)TH[Dip]PCC[NMeK]([AEEA-AEEA-X1])[β3hF][dK]-NH2; disulfide 6-7): under setting [2], the IC50 was in the range of 10 to 100 nM.

Take `COC(=O)CC[C@H](NC(=O)CC(C)C)C(=O)N[C@H](C(=O)N[C@@H](Cc1c[nH]cn1)C(=O)N[C@H](C(=O)N1CCC[C@H]1C(=O)N[C@H]1CSSC[C@@H](C(=O)N[C@H](CCCCNC(=O)CCCCCNC(=O)C[N+](C)(C)CCNC(=O)CCCCCCCCCCCCCCCCC(=O)O)C(=O)N[C@H](CC(=O)N[C@H](CCCCN)C(N)=O)Cc2ccccc2)NC1=O)C(c1ccccc1)c1ccccc1)[C@@H](C)O` [compound 213] (Isovaleryl-E(OMe)TH[Dip]PCC[dK]([Ahx-X1])[β3hF][dK]-NH2; disulfide 6-7): the IC50 under setting [1] fell in the range of 10 to 100 nM.

`CCCCCCCCCCCCCCCC(=O)NCC[N+](C)(C)CC(=O)NCCCC[C@@H](C(=O)N[C@H](C(N)=O)C(c1ccccc1)c1ccccc1)N(C)C(=O)[C@@H]1CSSC[C@H](NC(=O)[C@@H]2CCCN2C(=O)[C@@H](NC(=O)[C@H](Cc2cnc[nH]2)NC(=O)[C@H]([C@@H](C)O)N(C)C(=O)[C@H](CCC(=O)O)NC(=O)CC(C)C)C(c2ccccc2)c2ccccc2)C(=O)N1` [compound 169] (Isovaleryl-E[NMeT]H[Dip]PCC[NMeK](X5)[Dip]-NH2; disulfide 6-7): the IC50 under setting [1] lay in the range of 1 to 10 nM.

Consider `CC(C)CC(=O)N[C@@H](CCC(=O)O)C(=O)N(C)[C@H](C(=O)N[C@@H](Cc1c[nH]cn1)C(=O)N[C@H](C(=O)N1CCC[C@H]1C(=O)N[C@H]1CSSC[C@@H](C(=O)N(C)[C@@H](CCCCNC(=O)C[N+](C)(C)CCNC(=O)CCCCCCCCCCCCCCCCC(=O)O)C(=O)N[C@H](C(=O)N[C@H](CCCCN)C(N)=O)C(c2ccccc2)c2ccccc2)NC1=O)C(c1ccccc1)c1ccccc1)[C@@H](C)O` [compound 187] (Isovaleryl-E[NMeT]H[Dip]PCC[NMeK](X1)[Dip][dK]-NH2; disulfide 6-7), for which the IC50 under setting [1] is 10 to 100 nM.

Consider `COC(=O)CC[C@H](NC(=O)CC(C)C)C(=O)N[C@H](C(=O)N[C@@H](Cc1c[nH]cn1)C(=O)N[C@H](C(=O)N1CCC[C@H]1C(=O)N[C@H]1CSSC[C@@H](C(=O)N[C@@H](CCCCNC(=O)C[N+](C)(C)CCNC(=O)C[N+](C)(C)CCNC(=O)CCCCCCCCCCCCCCCCC(=O)O)C(=O)N[C@H](C(=O)N[C@H](CCCCN)C(N)=O)C(c2ccccc2)c2ccccc2)NC1=O)C(c1ccccc1)c1ccccc1)[C@@H](C)O` [compound 209] (Isovaleryl-E(OMe)TH[Dip]PCCK(X2)[Dip][dK]-NH2; disulfide 6-7), for which the IC50 under setting [1] was 10 to 100 nM.

For `COC(=O)CC[C@H](NC(=O)CC(C)C)C(=O)N(C)[C@H](C(=O)N[C@@H](Cc1c[nH]cn1)C(=O)N[C@H](C(=O)N1CCC[C@H]1C(=O)N[C@H]1CSSC[C@@H](C(=O)N(C)[C@@H](CCCCNC(=O)CCCCCNC(=O)C[N+](C)(C)CCNC(=O)CCCCCCCCCCCCCCCCC(=O)O)C(=O)N[C@H](C(=O)N(C)[C@@H](CCCCN)C(N)=O)C(c2ccccc2)c2ccccc2)NC1=O)C(c1ccccc1)c1ccccc1)[C@@H](C)O` [compound 153] (Isovaleryl-E(OMe)[NMeT]H[Dip]PCC[NMeK]([Ahx-X1])[Dip][NMeK]-NH2; disulfide 6-7), under setting [1], the IC50 lay in the range of 100 to 500 nM.

For `COC(=O)CC[C@H](NC(=O)CC(C)C)C(=O)N[C@H](C(=O)N[C@@H](Cc1c[nH]cn1)C(=O)N[C@H](C(=O)N1CCC[C@H]1C(=O)N[C@H]1CSSC[C@@H](C(=O)N(C)[C@@H](CCCCNC(=O)COCCOCCNC(=O)COCCOCCNC(=O)C[N+](C)(C)CCNC(=O)CCCCCCCCCCCCCCCCC(=O)O)C(=O)N[C@H](C(=O)N[C@H](CCCCN)C(N)=O)C(c2ccccc2)c2ccccc2)NC1=O)C(c1ccccc1)c1ccccc1)[C@@H](C)O` [compound 230] (Isovaleryl-E(OMe)TH[Dip]PCC[NMeK]([AEEA-AEEA-X1])[Dip][dK]-NH2; disulfide 6-7), the IC50 under setting [2] lay within 10 to 100 nM.

On to `CC(C)CC(=O)N[C@@H](CCC(=O)O)C(=O)N1CC[C@H](O)[C@H]1C(=O)N[C@@H](Cc1c[nH]cn1)C(=O)N[C@H](C(=O)N1CCC[C@H]1C(=O)N[C@H]1CSSC[C@@H](C(=O)N(C)[C@@H](CCCCNC(=O)COCCOCCNC(=O)COCCOCCNC(=O)[C@H](CN)NC(=O)CCCCCCCCCCCCCCCCC(=O)O)C(=O)N[C@H](CC(=O)N[C@H](CCCCN)C(N)=O)Cc2ccccc2)NC1=O)C(c1ccccc1)c1ccccc1` [compound 253] (Isovaleryl-E[Pro(3S-OH)]H[Dip]PCC[NMeK]([AEEA-AEEA-Dap-C18 diacid])[β3hF][dK]-NH2; disulfide 6-7), for which the IC50 under setting [2] was in the range of 10 to 100 nM.

Regarding `COC(=O)CCCCCCCCCCCCCCCCC(=O)NCC[N+](C)(C)CC(=O)NCCCCCC(=O)NCCCC[C@H]1C(=O)NC(C(c2ccccc2)c2ccccc2)C(=O)N[C@@H](C(N)=O)CCCCNC(=O)CC[C@H](NC(=O)CC(C)C)C(=O)N[C@@H]([C@@H](C)O)C(=O)N[C@@H](Cc2c[nH]cn2)C(=O)N[C@@H](C(c2ccccc2)c2ccccc2)C(=O)N2CCC[C@H]2C(=O)N[C@H]2CSSC[C@H](NC2=O)C(=O)N1C` (some centres unmarked) [compound 160] (Isovaleryl-ETH[Dip]PCC[NMeK]([Ahx-X13])[ξDip][dK]-NH2; lactam 1-10; disulfide 6-7), the IC50 under setting [1] was in the range of 10 to 100 nM.

For the compound `CCCCCCCCCCCCCCCC(=O)NCC[N+](C)(C)CC(=O)NCCCCCC(=O)NCCCC[C@@H](C(=O)N[C@H](C(=O)N[C@H](CCCCN)C(N)=O)C(c1ccccc1)c1ccccc1)N(C)C(=O)[C@@H]1CSSC[C@H](NC(=O)[C@@H]2CCCN2C(=O)[C@@H](NC(=O)[C@H](Cc2cnc[nH]2)NC(=O)[C@@H](NC(=O)[C@H](CCC(=O)O)NC(=O)CC(C)C)[C@@H](C)O)C(c2ccccc2)c2ccccc2)C(=O)N1` [compound 197] (Isovaleryl-ETH[Dip]PCC[NMeK]([Ahx-X5])[Dip][dK]-NH2; disulfide 6-7), under setting [1], the IC50 lay within 1 to 10 nM.

On to `CCCCCCCCCCCCCCCC(=O)NCC[N+](C)(C)CC(=O)NCCCC[C@@H](C(=O)N[C@H](C(=O)N[C@H](CCCCN)C(N)=O)C(c1ccccc1)c1ccccc1)N(C)C(=O)[C@@H]1CSSC[C@H](NC(=O)[C@@H]2CCCN2C(=O)[C@@H](NC(=O)[C@H](Cc2cnc[nH]2)NC(=O)[C@@H]2[C@H](O)CCN2C(=O)[C@H](CCC(=O)O)NC(=O)CC(C)C)C(c2ccccc2)c2ccccc2)C(=O)N1` [compound 152] (Isovaleryl-E[Pro(3R-OH)]H[Dip]PCC[NMeK](X5)[Dip][dK]-NH2; disulfide 6-7), for which, under setting [1], the IC50 was 1 to 10 nM.
